Data as given in patent US5041567A, “Antibacterial monic acid derivatives” (Beecham Group plc, priority 1982, dated 1991).
Values after ≈ are worked out from the molar mass of the structure shown. Read-outs that look alike come from different tables or passages of the source.

Columns and labels:
[1] = tested on: Staph. aureus B4 (pen. resistant); assay: MIC against veterinary bacteria in vitro; details: Staphylococcus aureus, 18 h
Method: (§1) The activity of the compounds of the Examples against various veterinarily important bacteria, was assayed in vitro using two-fold serial dilutions in Diagnostic Sensitivity Test Agar inoculated with 10^4 organisms.

S. typhimurium S18 = assay: MIC against veterinary bacteria in vitro; details: Salmonella enterica, TYPHIMURIUM, 18 h
Method: as §1

M. suipneumoniae JF 435 = assay: MIC against mycoplasma in vitro; format: cell-based; details: Mesomycoplasma hyopneumoniae, JF435, 144 h
Bord. bronchiseptica B08 = assay: MIC against veterinary bacteria in vitro; details: Bordetella bronchiseptica, B08, 18 h
Method: as §1

Staph. aureus Oxford = assay: MIC against human bacteria in vitro; format: cell-based; details: Staphylococcus aureus; Staph. aureus Oxford; 5% chocolated horse blood agar, 18 hours; read-out: MIC
K. aerogenes A = assay: MIC against human bacteria in vitro; format: cell-based; details: Klebsiella aerogenes; K. aerogenes A; 5% chocolated horse blood agar, 18 hours; read-out: MIC
P. mirabilis 889 = assay: MIC against human bacteria in vitro; format: cell-based; details: Proteus mirabilis; P. mirabilis 889; 5% chocolated horse blood agar, 18 hours; read-out: MIC
[2] = tested on: M. suipneumoniae NCTC 10110; assay: MIC against mycoplasma in vitro; format: cell-based; details: Mesomycoplasma hyopneumoniae, NCTC10110, 144 h
M. suipneumoniae HK(2) = assay: MIC against mycoplasma in vitro; format: cell-based; details: Mesomycoplasma hyopneumoniae, 144 h
Strep. faecalis I = assay: MIC against human bacteria in vitro; format: cell-based; details: Enterococcus faecalis; Strep. faecalis I; 5% chocolated horse blood agar, 18 hours; read-out: MIC
Bacillus subtilis 6633 = assay: MIC against human bacteria in vitro; format: cell-based
Sarcina lutea 8340 = assay: MIC against human bacteria in vitro; format: cell-based; details: Micrococcus luteus; Sarcina lutea 8340; 5% chocolated horse blood agar, 18 hours; read-out: MIC
Strep. uberis SPU1 = assay: MIC against veterinary bacteria in vitro; details: Streptococcus uberis, SPU1, 18 h
Method: as §1

M. hyorhinis ATCC 23234 = assay: MIC against mycoplasma in vitro; format: cell-based; details: Mesomycoplasma hyorhinis, ATCC23234, 144 h
Past. multocida PA2 = assay: MIC against veterinary bacteria in vitro; details: Pasteurella multocida, PA2, 18 h
Method: as §1

E. coli E1 = assay: MIC against veterinary bacteria in vitro; details: Escherichia coli, E1, 18 h
Method: as §1

[3] = tested on: Pasteurella multocida 1633; assay: MIC against human bacteria in vitro; format: cell-based; details: Pasteurella multocida 1633; 5% chocolated horse blood agar, 18 hours; read-out: MIC
Strep. spp. 64/848-C = assay: MIC against human bacteria in vitro; format: cell-based; details: Strep. spp. 64/848-C; 5% chocolated horse blood agar, 18 hours; read-out: MIC
M. pneumoniae ATCC 15492 = assay: MIC against mycoplasma in vitro; format: cell-based; details: Mycoplasmoides pneumoniae, ATCC15492, 144 h
[4] = tested on: Strep. suis (group D) SPS11; assay: MIC against veterinary bacteria in vitro; details: Streptococcus suis, 18 h
Method: as §1

M. dispar NCTC 10125 = assay: MIC against mycoplasma in vitro; format: cell-based; details: 144 h
[5] = tested on: Staph. aureus 152 (pen. sens); assay: MIC against veterinary bacteria in vitro; details: Staphylococcus aureus, 18 h
Method: as §1

M. suipneumoniae TAM 6N = assay: MIC against mycoplasma in vitro; format: cell-based; details: Mesomycoplasma hyopneumoniae, TAM6N, 144 h
Staph. aureus Russell = assay: MIC against human bacteria in vitro; format: cell-based; details: Staphylococcus aureus; Staph. aureus Russell; 5% chocolated horse blood agar, 18 hours; read-out: MIC
[6] = tested on: M. suipneumoniae J2206/183^b; assay: MIC against mycoplasma in vitro; format: cell-based; details: Mesomycoplasma hyopneumoniae, 144 h
[7] = tested on: Strep. pyogenes R80/421-A; assay: MIC against human bacteria in vitro; format: cell-based; details: Streptococcus pyogenes; Strep. pyogenes R80/421-A; 5% chocolated horse blood agar, 18 hours; read-out: MIC
Staph. aureus W2827 = assay: MIC against human bacteria in vitro; format: cell-based; details: Staphylococcus aureus; Staph. aureus W2827; 5% chocolated horse blood agar, 18 hours; read-out: MIC
M. suipneumoniae MS 16 = assay: MIC against mycoplasma in vitro; format: cell-based; details: Mesomycoplasma hyopneumoniae, MS16, 144 h
M. hyorhinis ATCC 25021 = assay: MIC against mycoplasma in vitro; format: cell-based; details: Mesomycoplasma hyorhinis, ATCC25021, 144 h
M. suipneumoniae LABER = assay: MIC against mycoplasma in vitro; format: cell-based; details: Mesomycoplasma hyopneumoniae, 144 h
[8] = tested on: M. suipneumoniae ATCC 25095; assay: MIC against mycoplasma in vitro; format: cell-based; details: Mesomycoplasma hyopneumoniae, ATCC25095, 144 h
[9] = tested on: M. hyosynoviae ATCC 25591; assay: MIC against mycoplasma in vitro; format: cell-based; details: 144 h
E. coli ESS = assay: MIC against human bacteria in vitro; format: cell-based; details: Escherichia coli; E. coli ESS; 5% chocolated horse blood agar, 18 hours; read-out: MIC
[10] = Bacillus subtilis 6633, 5% chocolated horse blood agar, 18 hours, read-out: MIC
[11] = M. hyorhinis ATCC 25021, 6 days, 37° C., read-out: MIC
[12] = M. suipneumoniae ATCC 25095, 6 days, 37° C., read-out: MIC

| Compound | MIC [1] | MIC (S. typhimurium S18) | MIC (Bord. bronchiseptica B08) | MIC (Staph. aureus Oxford) | MIC (K. aerogenes A) | MIC (P. mirabilis 889) | MIC (Strep. faecalis I) | MIC (Sarcina lutea 8340) | MIC (Strep. uberis SPU1) | MIC (Past. multocida PA2) | MIC (E. coli E1) | MIC [3] | MIC (Strep. spp. 64/848-C) | MIC (M. pneumoniae ATCC 15492) | MIC [4] | MIC [5] | MIC (Staph. aureus Russell) | MIC [7] | MIC (Staph. aureus W2827) | MIC (E. coli ESS) | also measured |
| --- | --- | --- | --- | --- | --- | --- | --- | --- | --- | --- | --- | --- | --- | --- | --- | --- | --- | --- | --- | --- | --- |
| C/C(=C\c1ncc(-c2cccc(S(C)(=O)=O)c2)o1)C[C@@H]1OC[C@H](C[C@@H]2O[C@H]2[C@@H](C)[C@H](C)O)[C@@H](O)[C@H]1O [Example 23, 5-m-Methylsulphonylphenyl-2-(1-normon-2-yl) oxazole A] | 5 µg/mL (≈ 9.59 µM) | > 80 µg/mL | > 80 µg/mL | 4 µg/mL (≈ 7.67 µM) | > 64 µg/mL | > 64 µg/mL | > 128 µg/mL | > 128 µg/mL | 0.625 µg/mL (≈ 1.2 µM) | 2.5 µg/mL (≈ 4.79 µM) | > 80 µg/mL | 2 µg/mL (≈ 3.83 µM) | 2 µg/mL (≈ 3.83 µM) | 1 µg/mL (≈ 1.92 µM) | 10 µg/mL (≈ 19.2 µM) | 2.5 µg/mL (≈ 4.79 µM) | 16 µg/mL (≈ 30.7 µM) | 0.5 µg/mL (≈ 0.959 µM) | 16 µg/mL (≈ 30.7 µM) | 4 µg/mL (≈ 7.67 µM) | MIC (M. suipneumoniae JF 435): 1 µg/mL (≈ 1.92 µM); MIC [2]: 1 µg/mL (≈ 1.92 µM); MIC (M. suipneumoniae HK(2)): 1 µg/mL (≈ 1.92 µM); MIC (Bacillus subtilis 6633; [10]): 2 µg/mL (≈ 3.83 µM); MIC (M. hyorhinis ATCC 23234; M. hyorhinis ATCC 23234, 6 days, 37° C., read-out: MIC): 0.5 µg/mL (≈ 0.959 µM); MIC (M. dispar NCTC 10125; M. dispar NCTC 10125, 6 days, 37° C., read-out: MIC): 0.5 µg/mL (≈ 0.959 µM); MIC (M. suipneumoniae TAM 6N): 1 µg/mL (≈ 1.92 µM); MIC [6]: 1 µg/mL (≈ 1.92 µM); MIC (M. suipneumoniae MS 16; M. suipneumoniae MS 16, 6 days, 37° C., read-out: MIC): 0.5 µg/mL (≈ 0.959 µM); MIC (M. hyorhinis ATCC 25021; [11]): 0.5 µg/mL (≈ 0.959 µM); MIC (M. suipneumoniae LABER; M. suipneumoniae LABER, 6 days, 37° C., read-out: MIC): 0.5 µg/mL (≈ 0.959 µM); MIC [8, 12]: 0.5 µg/mL (≈ 0.959 µM); MIC [9]: 1 µg/mL (≈ 1.92 µM) |
| C/C(=C\c1ncc(-c2cccc([S+](C)[O-])c2)o1)C[C@@H]1OC[C@H](C[C@@H]2O[C@H]2[C@@H](C)[C@H](C)O)[C@@H](O)[C@H]1O (stereo partly drawn) [Example 25, 5-m-Methylsulphinylphenyl-2-(1-normon-2-yl)oxazole A] | 10 µg/mL (≈ 19.8 µM) | > 80 µg/mL | > 80 µg/mL | 4 µg/mL (≈ 7.91 µM) | > 128 µg/mL | > 128 µg/mL | > 128 µg/mL | 128 µg/mL (≈ 253 µM) | 0.625 µg/mL (≈ 1.24 µM) | 2.5 µg/mL (≈ 4.94 µM) | > 80 µg/mL | 16 µg/mL (≈ 31.6 µM) | 4 µg/mL (≈ 7.91 µM) | 2.5 µg/mL (≈ 4.94 µM) | 20 µg/mL (≈ 39.6 µM) | 10 µg/mL (≈ 19.8 µM) | 32 µg/mL (≈ 63.3 µM) | 2 µg/mL (≈ 3.96 µM) | 32 µg/mL (≈ 63.3 µM) | 4 µg/mL (≈ 7.91 µM) | MIC (M. suipneumoniae JF 435; M. suipneumoniae JF 435, 6 days, 37° C., read-out: MIC): 0.5 µg/mL (≈ 0.989 µM); MIC [2]: 1 µg/mL (≈ 1.98 µM); MIC (M. suipneumoniae HK(2)): 1 µg/mL (≈ 1.98 µM); MIC (Bacillus subtilis 6633; [10]): 2 µg/mL (≈ 3.96 µM); MIC (M. hyorhinis ATCC 23234): 1 µg/mL (≈ 1.98 µM); MIC (M. dispar NCTC 10125): 0.25 µg/mL (≈ 0.494 µM); MIC (M. suipneumoniae TAM 6N): 1 µg/mL (≈ 1.98 µM); MIC [6]: 1 µg/mL (≈ 1.98 µM); MIC (M. suipneumoniae MS 16): 0.25 µg/mL (≈ 0.494 µM); MIC (M. hyorhinis ATCC 25021; [11]): 0.5 µg/mL (≈ 0.989 µM); MIC (M. suipneumoniae LABER): 0.25 µg/mL (≈ 0.494 µM); MIC [8, 12]: 0.5 µg/mL (≈ 0.989 µM); MIC [9]: 1 µg/mL (≈ 1.98 µM) |
| C/C(=C\c1ncc(-c2ccccc2[N+](=O)[O-])o1)C[C@@H]1OC[C@H](C[C@@H]2O[C@H]2[C@@H](C)[C@H](C)O)[C@@H](O)[C@H]1O [Example 26, 5-o-Nitrophenyl-2-(1-normon-2-yl)oxazole A] | 2.5 µg/mL (≈ 5.12 µM) | > 80 µg/mL | 80 µg/mL (≈ 164 µM) | 4 µg/mL (≈ 8.19 µM) | > 128 µg/mL | > 128 µg/mL | > 128 µg/mL | > 128 µg/mL | 0.156 µg/mL (≈ 0.319 µM) | 5 µg/mL (≈ 10.2 µM) | > 80 µg/mL | 16 µg/mL (≈ 32.8 µM) | 2 µg/mL (≈ 4.09 µM) | 2.5 µg/mL (≈ 5.12 µM) | 10 µg/mL (≈ 20.5 µM) | 2.5 µg/mL (≈ 5.12 µM) | 4 µg/mL (≈ 8.19 µM) | 1 µg/mL (≈ 2.05 µM) | 4 µg/mL (≈ 8.19 µM) | 8 µg/mL (≈ 16.4 µM) | MIC (M. suipneumoniae JF 435): 2.5 µg/mL (≈ 5.12 µM); MIC ([2]; M. suipneumoniae NCTC 10110, 6 days, 37° C., read-out: MIC): 5 µg/mL (≈ 10.2 µM); MIC (M. suipneumoniae HK(2); M. suipneumoniae HK(2), 6 days, 37° C., read-out: MIC): 5 µg/mL (≈ 10.2 µM); MIC (Bacillus subtilis 6633; Bacillus subtilis, 6633, 18 h): 0.25 µg/mL (≈ 0.512 µM); MIC (M. hyorhinis ATCC 23234): 2.5 µg/mL (≈ 5.12 µM); MIC (M. dispar NCTC 10125): 1 µg/mL (≈ 2.05 µM); MIC (M. suipneumoniae TAM 6N; M. suipneumoniae TAM 6N, 6 days, 37° C., read-out: MIC): 5 µg/mL (≈ 10.2 µM); MIC ([6]; M. suipneumoniae J2206/183^b, 6 days, 37° C., read-out: MIC): 5 µg/mL (≈ 10.2 µM); MIC (M. suipneumoniae MS 16): 1 µg/mL (≈ 2.05 µM); MIC (M. hyorhinis ATCC 25021): 2.5 µg/mL (≈ 5.12 µM); MIC (M. suipneumoniae LABER): 2.5 µg/mL (≈ 5.12 µM); MIC [8]: 2.5 µg/mL (≈ 5.12 µM); MIC ([9]; M. hyosynoviae ATCC 25591, 6 days, 37° C., read-out: MIC): 0.5 µg/mL (≈ 1.02 µM) |
